Source: patent US20070191476A1, “Antioxidant Components for Reduction of Nucleic Acid Damage in Companion Animals” (Mars, Incorporated, priority 2001, published 2007)

Columns and labels:
[1] = system: canine leukocytes
Protocol: (§1) All cats and dogs were housed at the Waltham Centre for Pet Nutrition, in conditions resembling those of pet cats and dogs, and were fed commercially available, complete diets throughout the study period. Fasted blood samples (5 ml) were drawn from the jugular vein of 12 healthy adult cats (7.2±4.8 years) and 12 healthy adult dogs (4.5±2.3 years) into lithium herparin vials and diluted 1:1 in PBS. Leukocytes were isolated over Histopaque 1083 gradients (Sigma, UK) by centrifugation at 1000 g for 40 minutes. Leukocytes were washed twice in 10 mls PBS and centrifuged at 700 g for 10 minutes before counting and storing at 1×10^6 cells/ml in 90% fetal calf serum (Sigma) and 10% dimethyl sulphoxide (Sigma) at −80° C. until required.
(§2) DNA damage was induced in vitro by exposing the leukocytes to a range of H2O2 concentrations (0-250 μM diluted in PBSa) to determine the optimal level of H2O2 required to induce a significant increase in DNA damage above background endogenous DNA damage levels. Leukocytes were thawed rapidly in a 37° C. water bath, washed twice in PBSa, centrifuged at 700 g for 15 minutes and resuspended in PBSa at […]. Cells were re-suspended in 0 μM, 10 μM, 50 μM, 100 μM and 250 μM H2O2 in PBSa and incubated on ice for 5 minutes. Treated leukocytes were centrifuged at 700 g for 15 minutes at 4° C. ready for slide preparation.
(§3) Two layers of agarose were prepared. For the first layer, 85 μl 1% (w/v) high-melting point (HMP) agarose (Sigma) prepared at 95° C. in PBSa was pipetted onto fully frosted microscope slides, covered with an 18×18 mm coverslip and allowed to set at 4° C. for 10 minutes. Untreated and hydrogen peroxide-treated leukocytes were washed twice in PBS, centrifuged at 700 g for 15 minutes and resuspended at 2×10^5 in 85 μl 1% (w/v) low melting point (LMP) agarose (Sigma). The cell suspension was then pipetted over the set HMP agarose layer, covered with an 18×18 mm coverslip and allowed to set at 4° C. for 10 minutes. After the coverslips were removed, the slides were immersed in freshly prepared cold lysis solution.

[2] = system: feline leukocytes
Protocol: as §1, §2, §3

[3] = 10-250 μM H2O2, 5 minutes, p<0.001

Structure (SMILES): OO [H2O2, hydrogen peroxide]
- DNA damage in relation to all other concentrations of H2O2 ([1]; 250 μM H2O2, FIG. 2): significant increases in DNA damage
- DNA damage (visual comet score) versus untreated samples [1, 3]: Statistically significant increases in DNA damage
- DNA damage in relation to all other concentrations of H2O2 ([2]; 250 μM H2O2, FIG. 1): significant increases in DNA damage
- DNA damage (visual comet score) versus untreated samples [2, 3]: Statistically significant increases in DNA damage
